Experimental data reported in paper PMC12152147, “DDB1 engagement defines the selectivity of S656 analogs for cyclin K degradation over CDK inhibition” (EMBO Reports, 2025).
≈ marks a conversion by molar mass, not a printed value.

Assay: Kinetic solubility measurement (HPLC-UV)
Type: physicochemical
Details: aqueous buffer, kinetic from dmso stock, αMEM media, nominal 200 μM, room temperature, triplicate
Protocol: A 40 μL aliquot of a 10 mM DMSO stock solution of S656 was prepared and diluted in αMEM media to achieve a nominal concentration of 200 μM. The samples were incubated with stirring at 1100 rpm for 24 h at room temperature. From the incubation mixture, 20 μL was pipetted, rinsed in acetonitrile (MeCN) for 5 s, then in water for 5 s. Subsequently, 10 μL was discarded, and the remaining 10 μL was transferred to a mixture containing 10 μL of PBS, 980 μL of quenched solution, and 10 μL of DMSO. Analysis was performed using HPLC equipped with a UV-visible detector (HPLC-UV). Chromatography was conducted under reverse-phase conditions with a column temperature of 55 °C on a Waters XSelect HSS T3 column (2.5 μm, 2.1 ×50 mm). The aqueous solvent (solvent A) was ultrapure water with 0.1% formic acid, and the organic eluent (solvent B) was acetonitrile. The injection volume was 4 μL, and the flow rate was set at 0.6 mL/min.

solubility kinetic at 24 h: 23 µM (≈ 8.84 µg/mL)
SMILES: CN(C)c1ccc(CC(=O)Nc2ncc(SCc3cccnc3)s2)cc1 [S656]
